Source: patent US20120065084A1, “METHODS AND TOOLS FOR PREDICTING THE EFFICIENCY OF ANTHRACYCLINES IN CANCER” (UNIVERSITE LIBRE DE BRUXELLES, priority 2010, published 2012)

System: primary breast tumor
Experiment: neoadjuvant prospective TOP trial: pathological complete response to anthracyclines (epirubicin) monotherapy
Assay type: in vivo, human
Experimental: One hundred and forty-nine patients were included in the prospective TOP trial. Out of these patients, 89 received 4 cycles of anthracyclines every 3 weeks, 59 patients received 6 cycles of anthracyclines administered every 2 weeks (dose-dense scheme) and one was not treated according to the protocol due to ineligibility.
The neoadjuvant prospective “TOP” (Trial of Principle) trial was conducted at different European hospitals and coordinated by the Institut Jules Bordet. This study is registered on the clinical trials site of the US National Cancer Institute website http://clinicaltrials.gov/ct2/show/NCT00162812?term=NCT00162812&rank=1. One hundred and forty-nine patients have been included in this trial. Anthracyclines (Epirubicin) monotherapy (100 mg/m2) was given as neo-adjuvant chemotherapy: every 3 weeks×4 cycles for early BC or every 2 weeks×6 cycles with Neulasta® 6 mg on day 2 for patients with inflammatory or locally advanced breast cancer. At completion of chemotherapy, every patient underwent surgery with axillary node sampling. After surgery, adjuvant docetaxel (100 mg/m2×4 cycles) and loco-regional irradiation were administered using standard criteria. This study was primarily designed for the identification of biomarkers of response to anthracyclines (epirubicin).
All patients underwent pretreatment core biopsies of the primary breast tumor before starting neo-adjuvant chemotherapy using a 14G needle. Two biopsies were embedded in OCT (Sakura), frozen in liquid nitrogen within 5 minutes and transferred to a −80° C. freezer. Two biopsies were fixed in formalin and embedded in paraffin. Both fixed and frozen samples were retrieved and stored at the Institut Jules Bordet in Brussels, where the TOP2A evaluations were carried out. Pathologic response was determined by microscopic examination of the excised tumor and nodes after completion of chemotherapy. Pathological complete response (pCR) was defined by the absence of residual invasive breast carcinoma (macro and microscopic) in the breast and in the axillary nodes. Persistence of in-situ carcinoma without invasive component was considered pCR.

## COc1cccc2c1C(=O)c1c(O)c3c(c(O)c1C2=O)C[C@@](O)(C(=O)CO)C[C@@H]3O[C@H]1C[C@H](N)[C@@H](O)[C@H](C)O1 [anthracyclines, Epirubicin]
3-weekly scheme (every 3 weeks x 4 cycles)
  pathological complete response (pCR) rate: 14%
HER2-negative patients (FISH)
  proportion of patients who presented a pCR: 10%
HER2-positive patients (FISH)
  proportion of patients who presented a pCR: 23%
All patients of the TOP trial, neo-adjuvant epirubicin monotherapy 100 mg/m2
  pathological complete response (pCR) rate: 15%
dose-dense scheme (every 2 weeks x 6 cycles)
  pathological complete response (pCR) rate: 16%
Patients whose tumors had no TOP2A amplification (FISH)
  patients who responded to the anthracyclines therapy (pCR): 9%
Patients with TOP2A amplified tumors (FISH)
  patients who responded to the anthracyclines therapy (pCR): 55%
